Values after ≈ are worked out from the molar mass of the structure shown. Read-outs that look alike come from different tables or passages of the source.
Experiments:
[1] = test system: Mycobacterium kansasii 235/80; assay: In vitro antimycobacterial MIC, M. kansasii 235/80; assay type: cell-based
[2] = test system: Pseudomonas aeruginosa CCM 1961; assay: Antibacterial microdilution broth MIC, P. aeruginosa; assay type: cell-based; settings: 48 h incubation, read-out: MIC PA 48 h
[3] = test system: Staphylococcus epidermidis H 6966/08; assay: Antibacterial microdilution broth MIC, S. epidermidis; assay type: cell-based
[4] = test system: Mycobacterium avium 330/88; assay: In vitro antimycobacterial MIC, M. avium; assay type: cell-based
[5] = test system: yeasts (Candida sp., T. asahii); assay: Antifungal activity against yeasts; assay type: cell-based; settings: read-out: MIC for yeasts
[6] = test system: Trichosporon asahii 1188; assay: Antifungal microdilution broth MIC, T. asahii; assay type: cell-based
[7] = test system: Candida tropicalis 156; assay: Antifungal microdilution broth MIC, C. tropicalis; assay type: cell-based
[8] = test system: M. kansasii 6509/96; assay: In vitro antimycobacterial MIC, M. kansasii clinical isolate; assay type: cell-based; settings: Mycobacterium kansasii
[9] = test system: Staphylococcus aureus CCM 4516/08; assay: Antibacterial microdilution broth MIC, S. aureus; assay type: cell-based; settings: 48 h incubation, read-out: MIC SA 48 h
[10] = test system: Trichophyton interdigitale 445; assay: Antifungal microdilution broth MIC, T. interdigitale; assay type: cell-based
[11] = test system: Mycobacterium tuberculosis 331/88 (H37Rv); assay: In vitro antimycobacterial MIC, M. tuberculosis; assay type: cell-based
[12] = test system: Aspergillus fumigatus 231; assay: Antifungal microdilution broth MIC, A. fumigatus; assay type: cell-based
[13] = test system: Candida albicans ATCC 44859; assay: Antifungal microdilution broth MIC, C. albicans; assay type: cell-based; settings: ATCC44859, 48 h incubation, read-out: MIC CA 48 h
[14] = test system: Klebsiella pneumoniae D 11750/08
[15] = test system: Lichtheimia corymbifera 272; assay: Antifungal microdilution broth MIC, L. corymbifera; assay type: cell-based
[16] = test system: Candida glabrata 20/I; assay: Antifungal microdilution broth MIC, C. glabrata; assay type: cell-based; settings: Nakaseomyces glabratus, 48 h incubation, read-out: MIC CG 48 h
[17] = test system: Enterococcus faecalis J 14365/08; assay: Antibacterial microdilution broth MIC, E. faecalis; assay type: cell-based
[18] = test system: Candida krusei E28; assay: Antifungal microdilution broth MIC, C. krusei; assay type: cell-based; settings: Pichia kudriavzevii
[19] = test system: Escherichia coli CCM 4517; assay: Antibacterial microdilution broth MIC, E. coli; assay type: cell-based
[20] = test system: ESBL-positive Klebsiella pneumoniae J 14368/08
[21] = test system: Klebsiella pneumoniae D 11750/08; assay: Antibacterial microdilution broth MIC, K. pneumoniae; settings: 48 h incubation
[22] = 235/80, 168 h, 7 d incubation, read-out: MIC M. kansasii 235/80 7 d
[23] = 235/80, 336 h, 14 d incubation, read-out: MIC M. kansasii 235/80 14 d
[24] = 235/80, 504 h, 21 d incubation, read-out: MIC M. kansasii 235/80 21 d
[25] = Pseudomonas aeruginosa, CCM1961
[26] = Staphylococcus epidermidis, H6966/08, 48 h incubation, read-out: MIC SE 48 h
[27] = 330/88, 336 h, 14 d incubation, read-out: MIC M. avium 330/88 14 d
[28] = 330/88, 504 h, 21 d incubation, read-out: MIC M. avium 330/88 21 d
[29] = 6509/96, 168 h, 7 d incubation, read-out: MIC M. kansasii 6509/96 7 d
[30] = 6509/96, 336 h, 14 d incubation, read-out: MIC M. kansasii 6509/96 14 d
[31] = 6509/96, 504 h, 21 d incubation, read-out: MIC M. kansasii 6509/96 21 d
[32] = 336 h, 14 d incubation, read-out: MIC Mtb. 331/88 14 d
[33] = 504 h, 21 d incubation, read-out: MIC Mtb. 331/88 21 d

With `O=S(=O)(Nc1ncccn1)c1ccc(N=Cc2cc(Cl)cc(Br)c2O)cc1` [Compound 2n, 4-[(3-Bromo-5-chloro-2-hydroxybenzylidene)amino]-N-(pyrimidin-2-yl)benzenesulfonamide] as the molecule, how does the MIC [1, 22] read?
The MIC was 125 µM (≈ 58.5 µg/mL).

What about the MIC [1, 23] of the same molecule?
Its MIC is 125 µM (≈ 58.5 µg/mL).

And the MIC [1, 24]?
The MIC was 250 µM (≈ 117 µg/mL).

And the MIC [2, 25]?
The MIC was > 500 µM.

And the MIC [3, 26]?
Its MIC is 31.2 µM (≈ 14.6 µg/mL).

What about the MIC [4, 27] of the same molecule?
The MIC was 250 µM (≈ 117 µg/mL).

What about the MIC [4, 28] of the same molecule?
The MIC was 500 µM (≈ 234 µg/mL).

What about the MIC [5] of the same molecule?
Its MIC is 31.2 to 125 µM (≈ 14.6 to 58.5 µg/mL).

And the MIC ([6]; Trichosporon asahii, 1188, 24 h, read-out: MIC TA 24 h)?
The MIC was 62.5 µM (≈ 29.2 µg/mL).

And the MIC ([6]; Trichosporon asahii, 1188, 48 h, read-out: MIC TA 48 h)?
Its MIC is 62.5 µM (≈ 29.2 µg/mL).

And the MIC ([7]; Candida tropicalis, 156, 24 h, read-out: MIC CT 24 h)?
Its MIC is 62.5 µM (≈ 29.2 µg/mL).

And the MIC ([7]; Candida tropicalis, 156, 48 h, read-out: MIC CT 48 h)?
The MIC was 62.5 µM (≈ 29.2 µg/mL).

What about the MIC [8, 29] of the same molecule?
The MIC was 62.5 µM (≈ 29.2 µg/mL).

And the MIC [8, 30]?
The MIC was 125 µM (≈ 58.5 µg/mL).

And the MIC [8, 31]?
The MIC was 125 µM (≈ 58.5 µg/mL).

And the MIC ([9]; Staphylococcus aureus, CCM4516)?
The MIC was 31.2 µM (≈ 14.6 µg/mL).

And the MIC ([10]; Trichophyton interdigitale, 445, 72 h, read-out: MIC TI 72 h)?
Its MIC is 62.5 µM (≈ 29.2 µg/mL).

And the MIC ([10]; Trichophyton interdigitale, 445, 120 h, read-out: MIC TI 120 h)?
Its MIC is 62.5 µM (≈ 29.2 µg/mL).

And the MIC [11, 32]?
Its MIC is 125 µM (≈ 58.5 µg/mL).

And the MIC [11, 33]?
Its MIC is 125 µM (≈ 58.5 µg/mL).

What about the MIC ([12]; Aspergillus fumigatus, 231, 48 h incubation, read-out: MIC AF 48 h) of the same molecule?
The MIC was 250 µM (≈ 117 µg/mL).

And the MIC [13]?
Its MIC is 31.2 µM (≈ 14.6 µg/mL).

And the “MIC KP 24 h” value ([14]; 24 h)?
Its value is >500 µM.

And the “MIC KP 48 h” value ([14]; 48 h)?
Its value is >500 µM.

And the MIC ([15]; Lichtheimia corymbifera, 272, 48 h incubation, read-out: MIC LC 48 h)?
The MIC was 500 µM (≈ 234 µg/mL).

What about the MIC [16] of the same molecule?
Its MIC is 31.2 µM (≈ 14.6 µg/mL).

What about the MIC ([17]; Enterococcus faecalis, J14365/08, 48 h incubation, read-out: MIC EF 48 h) of the same molecule?
Its MIC is > 500 µM.

What about the MIC ([18]; E28, 24 h, read-out: MIC CK 24 h) of the same molecule?
The MIC was 62.5 µM (≈ 29.2 µg/mL).

And the MIC ([18]; E28, 48 h, read-out: MIC CK 48 h)?
The MIC was 62.5 µM (≈ 29.2 µg/mL).

And the MIC ([19]; Escherichia coli, CCM4517, 48 h incubation, read-out: MIC EC 48 h)?
Its MIC is 500 µM (≈ 234 µg/mL).

And the “MIC KP-E 24 h” value ([20]; 24 h)?
The value was 500 µM (≈ 234 µg/mL).

And the “MIC KP-E 48 h” value ([20]; 48 h)?
The value was 500 µM (≈ 234 µg/mL).

How did the MIC [1, 22] turn out when `O=S(=O)(Nc1ncccn1)c1ccc(N=Cc2cc(I)cc(I)c2O)cc1` [Compound 2p, 4-[(2-Hydroxy-3,5-diiodobenzylidene)amino]-N-(pyrimidin-2-yl)benzenesulfonamide] was run?
Its MIC is 125 µM (≈ 75.8 µg/mL).

What about the MIC [1, 23] of the same molecule?
The MIC was 250 µM (≈ 152 µg/mL).

What about the MIC [1, 24] of the same molecule?
Its MIC is 250 µM (≈ 152 µg/mL).

What about the MIC [2, 25] of the same molecule?
The MIC was 500 µM (≈ 303 µg/mL).

What about the MIC [3, 26] of the same molecule?
The MIC was 7.81 µM (≈ 4.73 µg/mL).

And the MIC ([3]; Staphylococcus epidermidis, H6966/08, incubation time not given, read-out: MIC for S. epidermidis)?
Its MIC is 7.81 µM (≈ 4.73 µg/mL).

What about the MIC [4, 27] of the same molecule?
The MIC was 250 µM (≈ 152 µg/mL).

And the MIC [4, 28]?
Its MIC is 500 µM (≈ 303 µg/mL).

And the MIC ([6]; Trichosporon asahii, 1188, 48 h incubation, read-out: MIC TA 48 h)?
The MIC was 3.9 µM (≈ 2.36 µg/mL).

And the MIC ([7]; Candida tropicalis, 156, 48 h incubation, read-out: MIC CT 48 h)?
Its MIC is 7.81 µM (≈ 4.73 µg/mL).

And the MIC [8, 29]?
Its MIC is 62.5 µM (≈ 37.9 µg/mL).

What about the MIC [8, 30] of the same molecule?
The MIC was 125 µM (≈ 75.8 µg/mL).

And the MIC [8, 31]?
The MIC was 250 µM (≈ 152 µg/mL).

What about the MIC ([9]; Staphylococcus aureus, CCM4516) of the same molecule?
The MIC was 7.81 µM (≈ 4.73 µg/mL).

And the MIC ([10]; Trichophyton interdigitale, 445, 72 h incubation, read-out: MIC TI 72 h)?
The MIC was 15.6 µM (≈ 9.47 µg/mL).

And the MIC ([10]; Trichophyton interdigitale, 445, 120 h incubation, read-out: MIC TI 120 h)?
Its MIC is 15.6 µM (≈ 9.47 µg/mL).

What about the MIC [11, 32] of the same molecule?
Its MIC is 250 µM (≈ 152 µg/mL).

What about the MIC [11, 33] of the same molecule?
Its MIC is 250 µM (≈ 152 µg/mL).

What about the MIC ([12]; Aspergillus fumigatus, 231, 24 h, read-out: MIC AF 24 h) of the same molecule?
Its MIC is 62.5 µM (≈ 37.9 µg/mL).

What about the MIC ([12]; Aspergillus fumigatus, 231, 48 h, read-out: MIC AF 48 h) of the same molecule?
The MIC was 62.5 µM (≈ 37.9 µg/mL).

And the MIC [13]?
The MIC was 3.9 µM (≈ 2.36 µg/mL).

What about the MIC ([15]; Lichtheimia corymbifera, 272, 24 h, read-out: MIC LC 24 h) of the same molecule?
Its MIC is 62.5 µM (≈ 37.9 µg/mL).

What about the MIC ([15]; Lichtheimia corymbifera, 272, 48 h, read-out: MIC LC 48 h) of the same molecule?
The MIC was 62.5 µM (≈ 37.9 µg/mL).

What about the MIC [16] of the same molecule?
The MIC was 3.9 µM (≈ 2.36 µg/mL).

And the “MIC KP 48 h” value [21]?
Its value is 125 µM (≈ 75.8 µg/mL).

What about the MIC ([17]; Enterococcus faecalis, J14365/08, 24 h, read-out: MIC EF 24 h) of the same molecule?
The MIC was 125 µM (≈ 75.8 µg/mL).

And the MIC ([17]; Enterococcus faecalis, J14365/08, 48 h, read-out: MIC EF 48 h)?
Its MIC is 125 µM (≈ 75.8 µg/mL).

And the MIC ([18]; E28, 48 h incubation, read-out: MIC CK 48 h)?
The MIC was 7.81 µM (≈ 4.73 µg/mL).

And the MIC ([19]; Escherichia coli, CCM4517, 24 h, read-out: MIC EC 24 h)?
The MIC was 125 µM (≈ 75.8 µg/mL).

And the MIC ([19]; Escherichia coli, CCM4517, 48 h, read-out: MIC EC 48 h)?
Its MIC is 125 µM (≈ 75.8 µg/mL).

And the “MIC KP-E 48 h” value ([20]; 48 h incubation)?
Its value is 125 µM (≈ 75.8 µg/mL).

Which results are given for Bacitracin [reference compound]?
MIC [2]: >500 µM; MIC ([3]; 48 h incubation, read-out: MIC SE 48 h): 31.25 µM; MIC [9]: 15.62 µM; MIC KP 48 h [21]: >500 µM; MIC ([17]; 48 h incubation, read-out: MIC EF 48 h): 62.5 µM; MIC ([19]; 48 h incubation, read-out: MIC EC 48 h): >500 µM; MIC KP-E 48 h ([20]; 48 h incubation): >500 µM

— article PMC6151383 (Molecules : A Journal of Synthetic Chemistry and Natural …, 2017)
